Measurements from the NIST ThermoML archive (doi:10.1021/acs.jced.8b00684).
Numbers after ± are expanded uncertainties.

Experiments:
[1] = 100 kPa, Liquid, Falling or rolling sphere viscometry
[2] = xn = mol fraction of the nth substance listed; details: 100 kPa, Liquid, Falling or rolling sphere viscometry, x2 = 0

## CCCCCCn1cc[n+](C)c1.F[B-](F)(F)F [1-hexyl-3-methylimidazolium tetrafluoroborate]
[1]; 293.15 K
  viscosity: 293 ± 20 mPa·s
[1]; 298.15 K
  viscosity: 216 ± 13 mPa·s
[1]; 303.15 K
  viscosity: 163 ± 9 mPa·s
[1]; 313.15 K
  viscosity: 96.7 ± 4.3 mPa·s
[1]; 323.15 K
  viscosity: 61.8 ± 2.5 mPa·s
[1]; 333.15 K
  viscosity: 41.9 ± 1.7 mPa·s
[1]; 343.15 K
  viscosity: 29.5 ± 1.2 mPa·s
[1]; 353.15 K
  viscosity: 21.7 ± 0.9 mPa·s

## CC#N [acetonitrile]
[1]; 293.15 K
  viscosity: 0.39 ± 0.02 mPa·s
[1]; 298.15 K
  viscosity: 0.37 ± 0.02 mPa·s
[1]; 303.15 K
  viscosity: 0.35 ± 0.02 mPa·s
[1]; 313.15 K
  viscosity: 0.33 ± 0.01 mPa·s
[1]; 323.15 K
  viscosity: 0.3 ± 0.01 mPa·s
[1]; 333.15 K
  viscosity: 0.28 ± 0.01 mPa·s
[1]; 343.15 K
  viscosity: 0.26 ± 0.01 mPa·s

## CC#N [acetonitrile] + CCCCCCn1cc[n+](C)c1.F[B-](F)(F)F
[2]; 293.15 K
  viscosity: 0.39 ± 0.02 mPa·s
[2]; 298.15 K
  viscosity: 0.37 ± 0.02 mPa·s
[2]; 303.15 K
  viscosity: 0.35 ± 0.02 mPa·s
[2]; 313.15 K
  viscosity: 0.33 ± 0.01 mPa·s
[2]; 323.15 K
  viscosity: 0.3 ± 0.01 mPa·s
[2]; 333.15 K
  viscosity: 0.28 ± 0.01 mPa·s
[2]; 343.15 K
  viscosity: 0.26 ± 0.01 mPa·s

## C[S+](C)[O-] [dimethyl sulfoxide]
[1]; 293.15 K
  viscosity: 2.21 ± 0.09 mPa·s
[1]; 298.15 K
  viscosity: 2.01 ± 0.08 mPa·s
[1]; 303.15 K
  viscosity: 1.84 ± 0.07 mPa·s
[1]; 313.15 K
  viscosity: 1.56 ± 0.06 mPa·s
[1]; 323.15 K
  viscosity: 1.34 ± 0.05 mPa·s
[1]; 333.15 K
  viscosity: 1.17 ± 0.05 mPa·s
[1]; 343.15 K
  viscosity: 1.03 ± 0.04 mPa·s
[1]; 353.15 K
  viscosity: 0.92 ± 0.04 mPa·s

## C[S+](C)[O-] [dimethyl sulfoxide] + CCCCCCn1cc[n+](C)c1.F[B-](F)(F)F
[2]; 293.15 K
  viscosity: 2.21 ± 0.09 mPa·s
[2]; 298.15 K
  viscosity: 2.01 ± 0.08 mPa·s
[2]; 303.15 K
  viscosity: 1.84 ± 0.07 mPa·s
[2]; 313.15 K
  viscosity: 1.56 ± 0.06 mPa·s
[2]; 323.15 K
  viscosity: 1.34 ± 0.05 mPa·s
[2]; 333.15 K
  viscosity: 1.17 ± 0.05 mPa·s
[2]; 343.15 K
  viscosity: 1.03 ± 0.04 mPa·s
[2]; 353.15 K
  viscosity: 0.92 ± 0.04 mPa·s
